# How the values were obtained:
# Assay in all cases: Caliper, Mobility shift assay off-chip
# Conditions in all cases: compound 1.0 µM
# FLT3 (human) = FLT3 (human) (UniProt P36888)
# BTK (human) = BTK (human) (UniProt Q06187)
# FGFR1 (human) = FGFR1 (human) (UniProt P11362)
# MAPK11 (human) = MAPK11 (human) (UniProt Q15759)
# PRKCA (human) = PRKCA (human) (UniProt P17252)
# KDR (human) = KDR (human) (UniProt P35968)
# FGFR3 (human) = FGFR3 (human) (UniProt P22607)
# CSK (human) = CSK (human) (UniProt P41240)
# PIM2 (human) = PIM2 (human) (UniProt Q9P1W9)
# MAPK12 (human) = MAPK12 (human) (UniProt P53778)
# PAK4 (human) = PAK4 (human) (UniProt O96013)
# ALK (human) = ALK (human) (UniProt Q9UM73)
# NEK2 (human) = NEK2 (human) (UniProt P51955)
# MAPK13 (human) = MAPK13 (human) (UniProt O15264)
# MAPK14 (human) = MAPK14 (human) (UniProt Q16539)
# EPHA4 (human) = EPHA4 (human) (UniProt P54764)
# EGFR (human) = EGFR (human) (UniProt P00533)
# MAPKAPK2 (human) = MAPKAPK2 (human) (UniProt P49137)
# RAF1 (human) = RAF1 (human) (UniProt P04049)
# SRC (human) = SRC (human) (UniProt P12931)
# BRSK2 (human) = BRSK2 (human) (UniProt Q8IWQ3)
# EPHA2 (human) = EPHA2 (human) (UniProt P29317)
# RPS6KA5 KD1 KD2 (human) = RPS6KA5 KD1 KD2 (human) (UniProt O75582)
# RPS6KB1 (human) = RPS6KB1 (human) (UniProt P23443)
# PRKCI (human) = PRKCI (human) (UniProt P41743)
# ROCK1 (human) = ROCK1 (human) (UniProt Q13464)
# MAPKAPK5 (human) = MAPKAPK5 (human) (UniProt Q8IW41)
# TEK (human) = TEK (human) (UniProt Q02763)
# PRKCG (human) = PRKCG (human) (UniProt P05129)
# RIPK2 (human) = RIPK2 (human) (UniProt O43353)
# PLK3 (human) = PLK3 (human) (UniProt Q9H4B4)
# CHEK1 (human) = CHEK1 (human) (UniProt O14757)
# AKT1 (human) = AKT1 (human) (UniProt P31749)
# CDK2 CCNA2 (human) = CDK2 CCNA2 (human) (UniProt P24941+P20248)
# ZAP70 (human) = ZAP70 (human) (UniProt P43403)
# RPS6KA1 KD1 KD2 (human) = RPS6KA1 KD1 KD2 (human) (UniProt Q15418)
# KIT (human) = KIT (human) (UniProt P10721)
# PIM1 (human) = PIM1 (human) (UniProt P11309)
# IKBKB (human) = IKBKB (human) (UniProt O14920)
# IGF1R (human) = IGF1R (human) (UniProt P08069)
# NEK6 (human) = NEK6 (human) (UniProt Q9HC98)
# Sequence of NEK6 (human) (Q9HC98 whole entry, looked up): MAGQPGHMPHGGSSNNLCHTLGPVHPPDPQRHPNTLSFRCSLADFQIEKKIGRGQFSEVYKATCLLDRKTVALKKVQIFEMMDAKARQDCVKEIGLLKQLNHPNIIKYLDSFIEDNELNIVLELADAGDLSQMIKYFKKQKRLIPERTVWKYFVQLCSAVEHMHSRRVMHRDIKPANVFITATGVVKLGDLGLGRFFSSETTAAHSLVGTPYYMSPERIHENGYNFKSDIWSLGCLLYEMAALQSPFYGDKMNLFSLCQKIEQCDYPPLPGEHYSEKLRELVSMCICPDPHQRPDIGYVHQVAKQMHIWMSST
# Sequence of EPHA4 (human) (P54764 whole entry, looked up): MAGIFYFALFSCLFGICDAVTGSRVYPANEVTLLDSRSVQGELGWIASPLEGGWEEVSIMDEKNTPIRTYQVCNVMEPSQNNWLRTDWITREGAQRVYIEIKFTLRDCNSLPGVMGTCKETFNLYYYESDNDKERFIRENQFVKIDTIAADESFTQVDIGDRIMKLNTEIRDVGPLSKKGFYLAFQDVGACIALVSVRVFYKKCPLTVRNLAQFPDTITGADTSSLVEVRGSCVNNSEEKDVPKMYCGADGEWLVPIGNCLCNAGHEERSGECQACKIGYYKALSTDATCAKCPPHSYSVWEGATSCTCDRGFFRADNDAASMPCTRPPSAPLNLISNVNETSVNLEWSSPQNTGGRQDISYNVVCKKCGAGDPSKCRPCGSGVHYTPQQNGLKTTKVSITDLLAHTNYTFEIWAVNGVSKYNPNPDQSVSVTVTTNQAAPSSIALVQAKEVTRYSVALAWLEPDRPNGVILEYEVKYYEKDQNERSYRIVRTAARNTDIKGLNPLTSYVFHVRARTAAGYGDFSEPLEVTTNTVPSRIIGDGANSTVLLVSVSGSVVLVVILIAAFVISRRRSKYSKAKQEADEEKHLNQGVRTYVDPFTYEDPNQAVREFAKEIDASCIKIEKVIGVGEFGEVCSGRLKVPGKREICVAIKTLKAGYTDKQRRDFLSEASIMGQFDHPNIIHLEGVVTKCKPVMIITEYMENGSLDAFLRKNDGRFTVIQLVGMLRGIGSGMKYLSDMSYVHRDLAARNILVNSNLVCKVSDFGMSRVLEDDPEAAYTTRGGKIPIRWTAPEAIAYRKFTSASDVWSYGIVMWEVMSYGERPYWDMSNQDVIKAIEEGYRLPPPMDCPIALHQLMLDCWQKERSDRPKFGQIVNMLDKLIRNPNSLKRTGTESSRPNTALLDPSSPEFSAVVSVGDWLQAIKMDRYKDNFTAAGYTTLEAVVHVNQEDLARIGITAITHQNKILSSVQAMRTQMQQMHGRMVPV
# Sequence of MAPKAPK5 (human) (Q8IW41 whole entry, looked up): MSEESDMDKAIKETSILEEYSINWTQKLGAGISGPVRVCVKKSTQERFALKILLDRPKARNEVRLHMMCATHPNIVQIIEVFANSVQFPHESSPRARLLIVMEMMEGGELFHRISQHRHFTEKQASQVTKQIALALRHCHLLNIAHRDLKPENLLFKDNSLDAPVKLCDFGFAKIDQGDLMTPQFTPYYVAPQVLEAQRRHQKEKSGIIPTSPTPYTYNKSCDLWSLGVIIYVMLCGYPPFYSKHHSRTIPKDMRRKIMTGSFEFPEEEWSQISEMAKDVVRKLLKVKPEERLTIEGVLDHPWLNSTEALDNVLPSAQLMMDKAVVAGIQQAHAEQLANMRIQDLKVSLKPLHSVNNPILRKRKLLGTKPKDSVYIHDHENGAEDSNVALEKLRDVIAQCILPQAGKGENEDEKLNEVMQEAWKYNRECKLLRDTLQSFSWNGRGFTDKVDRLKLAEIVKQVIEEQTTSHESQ
# Sequence of MAPK14 (human) (Q16539 whole entry, looked up): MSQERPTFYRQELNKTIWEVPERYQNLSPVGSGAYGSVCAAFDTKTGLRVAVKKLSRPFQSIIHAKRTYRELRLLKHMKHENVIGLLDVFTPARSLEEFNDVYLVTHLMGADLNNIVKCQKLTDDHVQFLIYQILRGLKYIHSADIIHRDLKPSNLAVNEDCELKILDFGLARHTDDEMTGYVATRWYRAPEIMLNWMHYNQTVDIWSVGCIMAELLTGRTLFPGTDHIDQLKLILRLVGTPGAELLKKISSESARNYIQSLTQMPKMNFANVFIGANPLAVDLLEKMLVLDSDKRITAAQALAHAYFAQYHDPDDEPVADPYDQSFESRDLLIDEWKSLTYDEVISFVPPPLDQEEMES
# Sequence of ROCK1 (human) (Q13464 whole entry, looked up): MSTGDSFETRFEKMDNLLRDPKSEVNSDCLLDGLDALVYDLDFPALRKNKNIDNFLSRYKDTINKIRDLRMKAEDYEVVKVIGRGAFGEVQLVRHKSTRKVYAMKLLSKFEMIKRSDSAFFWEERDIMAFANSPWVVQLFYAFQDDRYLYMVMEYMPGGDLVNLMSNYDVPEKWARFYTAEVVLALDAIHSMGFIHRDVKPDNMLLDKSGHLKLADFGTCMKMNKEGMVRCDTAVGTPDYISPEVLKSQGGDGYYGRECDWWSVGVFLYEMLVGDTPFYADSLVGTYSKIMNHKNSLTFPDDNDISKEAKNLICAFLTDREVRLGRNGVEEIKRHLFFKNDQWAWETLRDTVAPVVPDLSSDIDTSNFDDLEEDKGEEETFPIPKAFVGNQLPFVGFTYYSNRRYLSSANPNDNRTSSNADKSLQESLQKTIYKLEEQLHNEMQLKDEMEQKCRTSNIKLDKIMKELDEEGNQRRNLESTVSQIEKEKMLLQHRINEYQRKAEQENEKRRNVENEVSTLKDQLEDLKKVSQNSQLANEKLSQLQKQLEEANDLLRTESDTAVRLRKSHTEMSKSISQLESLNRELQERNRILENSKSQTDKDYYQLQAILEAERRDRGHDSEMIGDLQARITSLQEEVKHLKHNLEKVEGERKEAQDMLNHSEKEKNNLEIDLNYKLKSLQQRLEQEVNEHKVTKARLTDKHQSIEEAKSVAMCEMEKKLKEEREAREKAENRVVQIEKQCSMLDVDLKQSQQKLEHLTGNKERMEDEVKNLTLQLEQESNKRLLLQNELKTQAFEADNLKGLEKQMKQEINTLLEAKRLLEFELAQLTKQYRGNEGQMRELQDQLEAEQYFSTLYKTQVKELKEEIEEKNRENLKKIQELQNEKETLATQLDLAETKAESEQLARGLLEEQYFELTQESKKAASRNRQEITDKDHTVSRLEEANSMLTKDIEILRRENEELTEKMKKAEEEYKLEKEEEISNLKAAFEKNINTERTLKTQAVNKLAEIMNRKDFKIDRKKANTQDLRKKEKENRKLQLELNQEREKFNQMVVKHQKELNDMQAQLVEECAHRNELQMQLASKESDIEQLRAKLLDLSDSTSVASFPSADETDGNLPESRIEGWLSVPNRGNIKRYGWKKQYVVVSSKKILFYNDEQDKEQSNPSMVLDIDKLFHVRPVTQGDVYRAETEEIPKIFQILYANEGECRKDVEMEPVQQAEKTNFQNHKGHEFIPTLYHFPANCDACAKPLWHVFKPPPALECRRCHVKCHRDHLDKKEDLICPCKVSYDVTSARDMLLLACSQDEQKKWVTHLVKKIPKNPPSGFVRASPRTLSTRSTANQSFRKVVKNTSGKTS
# Sequence of FGFR3 (human) (P22607 whole entry, looked up): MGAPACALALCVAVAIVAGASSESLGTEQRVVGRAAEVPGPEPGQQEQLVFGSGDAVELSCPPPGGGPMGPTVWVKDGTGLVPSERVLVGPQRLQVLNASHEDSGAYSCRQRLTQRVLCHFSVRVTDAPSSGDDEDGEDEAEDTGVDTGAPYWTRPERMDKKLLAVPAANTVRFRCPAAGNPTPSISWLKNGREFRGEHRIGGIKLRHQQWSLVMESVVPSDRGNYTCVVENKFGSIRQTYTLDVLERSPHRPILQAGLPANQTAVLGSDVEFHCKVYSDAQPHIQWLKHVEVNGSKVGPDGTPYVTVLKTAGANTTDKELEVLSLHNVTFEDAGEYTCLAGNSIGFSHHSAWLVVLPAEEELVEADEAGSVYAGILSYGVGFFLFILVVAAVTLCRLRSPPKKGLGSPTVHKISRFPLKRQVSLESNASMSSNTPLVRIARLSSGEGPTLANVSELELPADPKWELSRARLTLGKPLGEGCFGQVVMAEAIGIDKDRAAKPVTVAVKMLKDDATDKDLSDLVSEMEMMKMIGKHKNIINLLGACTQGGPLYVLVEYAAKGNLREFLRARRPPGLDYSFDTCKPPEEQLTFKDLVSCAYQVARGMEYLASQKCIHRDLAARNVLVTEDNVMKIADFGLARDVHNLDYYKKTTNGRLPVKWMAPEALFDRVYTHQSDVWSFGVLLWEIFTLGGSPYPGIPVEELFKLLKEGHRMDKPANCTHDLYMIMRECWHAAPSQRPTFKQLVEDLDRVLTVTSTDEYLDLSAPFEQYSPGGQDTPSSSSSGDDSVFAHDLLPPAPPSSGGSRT
# Sequence of CSK (human) (P41240 whole entry, looked up): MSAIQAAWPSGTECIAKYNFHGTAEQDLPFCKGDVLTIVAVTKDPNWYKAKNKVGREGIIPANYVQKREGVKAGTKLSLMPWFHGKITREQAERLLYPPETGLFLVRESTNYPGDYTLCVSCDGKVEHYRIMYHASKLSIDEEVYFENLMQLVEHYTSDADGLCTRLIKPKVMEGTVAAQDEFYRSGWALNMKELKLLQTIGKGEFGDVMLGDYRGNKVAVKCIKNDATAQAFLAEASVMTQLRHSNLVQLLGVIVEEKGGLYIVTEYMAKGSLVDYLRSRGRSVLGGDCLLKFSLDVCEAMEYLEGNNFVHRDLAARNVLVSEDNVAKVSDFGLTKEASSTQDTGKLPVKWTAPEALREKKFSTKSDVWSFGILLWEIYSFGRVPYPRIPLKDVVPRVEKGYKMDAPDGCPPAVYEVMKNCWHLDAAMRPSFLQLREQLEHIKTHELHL
compound,measurement,setting,value
Cc1n[nH]c2c1c(=O)n(CCCN)c1ccc(Cl)cc21,residual activity,FLT3 (human),25%
same,residual activity,BTK (human),95%
same,residual activity,FGFR1 (human),43%
same,residual activity,MAPK11 (human),99%
same,residual activity,PRKCA (human),107%
same,residual activity,KDR (human),95%
same,residual activity,FGFR3 (human),102%
same,residual activity,CSK (human),110%
same,residual activity,PIM2 (human),92%
same,residual activity,MAPK12 (human),107%
same,residual activity,PAK4 (human),69%
same,residual activity,ALK (human),116%
same,residual activity,NEK2 (human),118%
same,residual activity,MAPK13 (human),97%
same,residual activity,MAPK14 (human),94%
same,residual activity,EPHA4 (human),104%
same,residual activity,EGFR (human),110%
same,residual activity,MAPKAPK2 (human),88%
same,residual activity,RAF1 (human),106%
same,residual activity,SRC (human),104%
same,residual activity,BRSK2 (human),18%
same,residual activity,EPHA2 (human),107%
same,residual activity,RPS6KA5 KD1 KD2 (human),68%
same,residual activity,RPS6KB1 (human),76%
same,residual activity,PRKCI (human),114%
same,residual activity,ROCK1 (human),66%
same,residual activity,MAPKAPK5 (human),80%
same,residual activity,TEK (human),106%
same,residual activity,PRKCG (human),75%
same,residual activity,RIPK2 (human),93%
same,residual activity,PLK3 (human),95%
same,residual activity,CHEK1 (human),5%
same,residual activity,AKT1 (human),102%
same,residual activity,CDK2 CCNA2 (human),104%
same,residual activity,ZAP70 (human),114%
same,residual activity,RPS6KA1 KD1 KD2 (human),2%
same,residual activity,KIT (human),112%
same,residual activity,PIM1 (human),97%
same,residual activity,IKBKB (human),104%
same,residual activity,IGF1R (human),145%
same,residual activity,NEK6 (human),101%
O=C(NCCCNc1nc(Nc2cccc(NC(=O)N3CCCC3)c2)ncc1I)c1cccs1,residual activity,FLT3 (human),9%
same,residual activity,BTK (human),94%
same,residual activity,FGFR1 (human),48%
same,residual activity,MAPK11 (human),85%
same,residual activity,PRKCA (human),98%
same,residual activity,KDR (human),106%
same,residual activity,FGFR3 (human),88%
same,residual activity,CSK (human),107%
same,residual activity,PIM2 (human),91%
same,residual activity,MAPK12 (human),98%
same,residual activity,PAK4 (human),99%
same,residual activity,ALK (human),100%
same,residual activity,NEK2 (human),93%
same,residual activity,MAPK13 (human),115%
same,residual activity,MAPK14 (human),108%
same,residual activity,EPHA4 (human),100%
same,residual activity,EGFR (human),109%
same,residual activity,MAPKAPK2 (human),96%
same,residual activity,RAF1 (human),94%
same,residual activity,SRC (human),86%
same,residual activity,BRSK2 (human),81%
same,residual activity,EPHA2 (human),127%
same,residual activity,RPS6KA5 KD1 KD2 (human),93%
same,residual activity,RPS6KB1 (human),85%
same,residual activity,PRKCI (human),121%
same,residual activity,ROCK1 (human),96%
same,residual activity,MAPKAPK5 (human),78%
same,residual activity,TEK (human),95%
same,residual activity,PRKCG (human),86%
same,residual activity,RIPK2 (human),111%
same,residual activity,PLK3 (human),111%
same,residual activity,CHEK1 (human),54%
same,residual activity,AKT1 (human),103%
same,residual activity,CDK2 CCNA2 (human),99%
same,residual activity,ZAP70 (human),120%
same,residual activity,RPS6KA1 KD1 KD2 (human),83%
same,residual activity,KIT (human),100%
same,residual activity,PIM1 (human),103%
same,residual activity,IKBKB (human),105%
same,residual activity,IGF1R (human),103%
same,residual activity,NEK6 (human),114%

# — the kinase profiling compilation of Christmann-Franck et al. (2016)
